Data on 14 compounds can be found in ChEMBL document CHEMBL4219107, “Synthesis and evaluation of 1H-pyrrole-2,5-dione derivatives as cholesterol absorption inhibitors for suppressing the formation of foam cells and inflammatory response” (Bioorg Med Chem, 2018).

Activity calls are given as the source filed them. The rule behind the calls is not given here.

Series [1] addresses NPC1-like intracellular cholesterol transporter 1 (Mus musculus) (UniProt Q6T3U4). In words: Inhibition of NPC1L1-mediated cholesterol-methyl-beta-cyclodextrin accumulation in mouse RAW264.7 cells assessed as decrease in foam cell formation by measuring decrease in MDA level at 30 uM relative to control. Set-up: scale not given: the % may be the effect or the level left. The format is cell-based.

For series [2] the target is unchanged. Put plainly: Inhibition of NPC1L1-mediated cholesterol-methyl-beta-cyclodextrin accumulation in mouse RAW264.7 cells assessed as decrease in foam cell formation by measuring decrease in MDA level. Type of series: cell-based.
For series [3] the target is unchanged. In words: Inhibition of NPC1L1-mediated cholesterol-methyl-beta-cyclodextrin accumulation in mouse RAW264.7 cells incubated for 72 hrs by Oil Red O/hematoxyline staining based microscopic analysis. Type of series: cell-based.
Series [4] concerns RAW264.7. In words: Antiinflammatory activity against mouse RAW264.7 cells assessed as decrease in cholesterol-methyl-beta-cyclodextrin-induced ROS level. The format is functional, cell-based.
Series [5] in a line: Cytotoxicity against mouse RAW264.7 cells after 48 hrs by MTT assay. The format is cell-based. The following applies: read-out: LC50. (Tetrazolium dyes change colour on reduction, which living cells bring about.)
Series [6] concerns the target NPC1-like intracellular cholesterol transporter 1 (Mus musculus) (UniProt Q6T3U4). In words: Inhibition of NPC1L1 in mouse RAW264.7 cells assessed as decrease in choleserol-D7 absorption at 30 uM after 72 hrs by LC-MS/MS analysis relative to control. Type of series: cell-based.
For series [7], the target named is T1, NPC1-like intracellular cholesterol transporter 1 (Homo sapiens) (UniProt Q9UHC9).
T1 sequence (whole entry): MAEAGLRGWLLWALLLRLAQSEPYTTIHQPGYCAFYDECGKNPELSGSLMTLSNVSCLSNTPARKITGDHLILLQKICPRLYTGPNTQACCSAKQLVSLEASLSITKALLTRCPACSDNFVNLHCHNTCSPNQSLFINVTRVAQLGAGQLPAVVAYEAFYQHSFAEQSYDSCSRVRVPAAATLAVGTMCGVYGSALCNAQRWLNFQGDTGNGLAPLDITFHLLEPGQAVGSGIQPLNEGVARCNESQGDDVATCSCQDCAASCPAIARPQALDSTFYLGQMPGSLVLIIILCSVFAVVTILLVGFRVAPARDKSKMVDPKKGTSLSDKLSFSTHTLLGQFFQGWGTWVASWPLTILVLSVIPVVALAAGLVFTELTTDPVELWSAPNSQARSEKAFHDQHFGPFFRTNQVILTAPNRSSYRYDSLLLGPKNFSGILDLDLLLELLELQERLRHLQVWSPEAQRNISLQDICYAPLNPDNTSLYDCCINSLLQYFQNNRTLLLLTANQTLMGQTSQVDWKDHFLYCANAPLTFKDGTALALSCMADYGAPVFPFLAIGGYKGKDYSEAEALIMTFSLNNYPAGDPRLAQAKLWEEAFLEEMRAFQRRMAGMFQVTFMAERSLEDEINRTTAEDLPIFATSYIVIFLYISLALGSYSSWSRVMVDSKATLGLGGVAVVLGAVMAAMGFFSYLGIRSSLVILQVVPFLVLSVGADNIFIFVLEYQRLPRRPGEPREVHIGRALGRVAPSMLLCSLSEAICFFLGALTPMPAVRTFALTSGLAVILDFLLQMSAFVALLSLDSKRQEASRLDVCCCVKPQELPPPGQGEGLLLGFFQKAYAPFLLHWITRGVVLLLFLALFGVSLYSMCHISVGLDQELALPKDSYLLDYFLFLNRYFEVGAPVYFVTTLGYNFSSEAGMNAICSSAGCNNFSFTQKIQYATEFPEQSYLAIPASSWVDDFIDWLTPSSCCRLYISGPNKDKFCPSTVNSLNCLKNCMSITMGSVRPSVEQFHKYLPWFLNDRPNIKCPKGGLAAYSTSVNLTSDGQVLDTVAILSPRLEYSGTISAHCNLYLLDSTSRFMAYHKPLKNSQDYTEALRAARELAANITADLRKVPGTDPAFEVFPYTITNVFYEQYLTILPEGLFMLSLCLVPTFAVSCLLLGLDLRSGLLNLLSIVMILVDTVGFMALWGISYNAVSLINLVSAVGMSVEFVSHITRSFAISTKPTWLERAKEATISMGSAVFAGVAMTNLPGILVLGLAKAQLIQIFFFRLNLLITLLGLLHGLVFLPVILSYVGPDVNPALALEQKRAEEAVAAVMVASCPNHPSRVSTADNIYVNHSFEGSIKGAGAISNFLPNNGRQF
In words: Inhibition of NPC1L1 in human Caco2 cells assessed as decrease in cholesterol uptake at 100 uM preincubated for 24 hrs followed by stigmosterol substrate addition measured after 24 hrs by HPLC method. The format is cell-based.

For series [8], the system named is RAW264.7. In words: Antiinflammatory activity against mouse RAW264.7 cells assessed as decrease in cholesterol-methyl-beta-cyclodextrin-induced TNFalpha release. The format is functional, cell-based.
Series [9] relates to RAW264.7. Put plainly: Antiinflammatory activity against mouse RAW264.7 cells assessed as decrease in cholesterol-methyl-beta-cyclodextrin-induced ROS level at 30 uM relative to control. The format is functional. The arrangement: scale not given: the % may be the effect or the level left.
The test system of series [10] is RAW264.7. In words: Antiinflammatory activity against mouse RAW264.7 cells assessed as decrease in cholesterol-methyl-beta-cyclodextrin-induced TNFalpha release at 30 uM relative to control. The format is functional. The arrangement: scale not given: the % may be the effect or the level left.
The target of series [11] is NPC1-like intracellular cholesterol transporter 1 (Mus musculus) (UniProt Q6T3U4). Put plainly: Inhibition of NPC1L1-mediated cholesterol-methyl-beta-cyclodextrin accumulation in mouse RAW264.7 cells assessed as decrease in foam cell formation by measuring decrease in LDH level at 30 uM relative to control. The format is cell-based. The arrangement: scale not given: the % may be the effect or the level left.
Chain of NPC1-like intracellular cholesterol transporter 1 (Mus musculus) (Q6T3U4 21-1333 limits assumed): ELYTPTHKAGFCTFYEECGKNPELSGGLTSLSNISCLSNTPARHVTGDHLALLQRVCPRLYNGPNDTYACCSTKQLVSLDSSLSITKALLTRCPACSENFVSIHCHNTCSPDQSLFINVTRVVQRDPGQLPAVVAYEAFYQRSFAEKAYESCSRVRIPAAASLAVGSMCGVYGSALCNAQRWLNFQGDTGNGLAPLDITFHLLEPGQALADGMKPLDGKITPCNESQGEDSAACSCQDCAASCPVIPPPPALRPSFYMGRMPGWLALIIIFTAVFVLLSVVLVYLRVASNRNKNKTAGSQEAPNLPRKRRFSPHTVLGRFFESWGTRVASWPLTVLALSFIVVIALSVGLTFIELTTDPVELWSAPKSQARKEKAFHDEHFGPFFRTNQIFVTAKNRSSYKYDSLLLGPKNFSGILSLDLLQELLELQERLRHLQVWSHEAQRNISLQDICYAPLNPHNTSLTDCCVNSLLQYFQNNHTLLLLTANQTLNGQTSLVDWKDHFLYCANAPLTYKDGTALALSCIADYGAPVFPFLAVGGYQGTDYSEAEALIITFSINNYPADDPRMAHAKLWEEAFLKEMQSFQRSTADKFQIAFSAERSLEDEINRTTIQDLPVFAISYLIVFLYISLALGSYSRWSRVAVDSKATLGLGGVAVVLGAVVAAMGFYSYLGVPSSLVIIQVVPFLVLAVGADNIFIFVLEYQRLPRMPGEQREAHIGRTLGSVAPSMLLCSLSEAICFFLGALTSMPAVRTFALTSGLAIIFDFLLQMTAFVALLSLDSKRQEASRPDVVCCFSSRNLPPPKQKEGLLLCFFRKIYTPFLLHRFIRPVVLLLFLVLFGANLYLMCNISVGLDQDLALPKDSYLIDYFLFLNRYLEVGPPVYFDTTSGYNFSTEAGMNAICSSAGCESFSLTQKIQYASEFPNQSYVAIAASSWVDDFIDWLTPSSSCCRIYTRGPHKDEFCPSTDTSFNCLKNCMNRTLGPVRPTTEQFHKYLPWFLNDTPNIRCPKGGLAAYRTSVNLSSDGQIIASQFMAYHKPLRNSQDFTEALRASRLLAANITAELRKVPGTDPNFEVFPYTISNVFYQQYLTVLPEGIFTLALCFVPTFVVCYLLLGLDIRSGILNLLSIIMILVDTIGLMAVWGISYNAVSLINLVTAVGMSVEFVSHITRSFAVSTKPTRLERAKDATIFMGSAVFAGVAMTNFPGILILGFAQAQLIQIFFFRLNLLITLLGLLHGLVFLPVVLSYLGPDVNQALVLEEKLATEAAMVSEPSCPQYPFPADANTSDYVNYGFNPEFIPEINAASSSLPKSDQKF

The nature of series [12]: Octanol-water partition coefficient, log P of the compound measured after 4 hrs by HPLC analysis. The format is physicochemical.
The target of series [13] is NPC1-like intracellular cholesterol transporter 1 (Mus musculus) (UniProt Q6T3U4). In words: Inhibition of NPC1L1-mediated cholesterol-methyl-beta-cyclodextrin accumulation in mouse RAW264.7 cells assessed as decrease in foam cell formation by measuring decrease in LDH level. The format is cell-based.
A short description of series [14]: Cytotoxicity against HEK293 cells after 48 hrs by MTT assay. The following applies: human, read-out: LC50. Type of series: cell-based.
In series [15] the target is T1, NPC1-like intracellular cholesterol transporter 1 (Homo sapiens). In words: Inhibition of NPC1L1 in human Caco2 cells assessed as decrease in cholesterol uptake at 100 uM preincubated for 24 hrs followed by stigmosterol substrate addition measured after 24 hrs by HPLC method relative to control. The format is cell-based.

Consider `O=C1C(c2ccc(O)cc2)=C(c2ccc(F)cc2)C(=O)N1CCC(O)(c1ccccc1)c1ccccc1`, for which the Activity is 79.6% in [1]; “Dose-dependent effect” with RAW264.7 [4]; “Dose-dependent effect” in the series with RAW264.7 [8]; 51% with RAW264.7 [9]; 35.1% with RAW264.7 [10]; 33.3% in series [11]. In addition, the inhibition result in [2] is “Dose-dependent effect”; in [3], “Dose-dependent effect”; in [6] it was 67.9%; in series [13] it was “Dose-dependent effect”. Further, the CC50 at 48 h in series [5] and in series [14] was more than 100 µM in each case. In addition, the inhibition entry in series [7] is “Active”. The compound further showed a lipophilicity (logP) at 4 h in series [12] of 2 to 4.
As to `Cc1ccc(S(=O)(=O)NCCCCN2C(=O)C(c3ccc(F)cc3)=C(c3ccc(OCC(=O)NCC(=O)NCC(=O)O)cc3)C2=O)cc1`, the CC50 at 48 h in [5] and in series [14] was more than 100 µM each time. Further, the inhibition result in [7] is “Active”. In series [12], this compound gave a lipophilicity (logP) at 4 h of 2 to 4.
Consider `CCc1ccc(S(=O)(=O)NCCCN2C(=O)C(c3ccc(O)cc3)=C(c3ccc(F)cc3)C2=O)cc1`, for which the CC50 at 48 h is 17.2 µM in series [5] and 11.5 µM in series [14]. The inhibition entry in series [7] is “Active”. In [12], this compound came in with a logP at 4 h of 2 to 4.
Turning to `O=C1C(c2ccc(F)cc2)=C(c2ccc(OCCCS(=O)(=O)O)cc2)C(=O)N1CCC(O)(c1ccccc1)c1ccccc1`, the inhibition result in series [7] was “inactive”.
Regarding `CCN(CC)CCCOc1ccc(C2=C(c3ccc(F)cc3)C(=O)N(CCC(O)(c3ccccc3)c3ccccc3)C2=O)cc1`, in series [15], the inhibition lay within 69.6 to 72.6%. The figures for the CC50 at 48 h in [5] and in [14] were 37.6 µM and 32.7 µM, respectively. This compound came in with a logP at 4 h in [12] of more than 5.
For `CCN(CC)CCCCOc1ccc(C2=C(c3ccc(F)cc3)C(=O)N(CCC(O)(c3ccccc3)c3ccccc3)C2=O)cc1`, the inhibition in series [15] is 69.6 to 72.6%. Besides, the CC50 at 48 h in series [5] worked out at 43.2 µM; in [14] it was 47.3 µM. For the same compound, the logP at 4 h in series [12] was more than 5.
Take `O=C1C(c2ccc(O)cc2)=C(c2ccc(F)cc2)C(=O)N1CCCNS(=O)(=O)c1ccc(OC(F)(F)F)cc1`: the CC50 at 48 h in series [5] was 41.2 µM; in series [14], 24.8 µM. The inhibition entry in series [7] is “Active”. The same compound gave a lipophilicity (logP) at 4 h in series [12] of 2 to 4.
As for `O=C1C(c2ccc(F)cc2)=C(c2ccc(OCCCCS(=O)(=O)O)cc2)C(=O)N1CCC(O)(c1ccccc1)c1ccccc1`, in series [7], the inhibition entry is “inactive”.
Take `CCc1ccc(S(=O)(=O)NCCCCN2C(=O)C(c3ccc(F)cc3)=C(c3ccc(OCC(=O)NCC(=O)NCC(=O)O)cc3)C2=O)cc1`: the CC50 at 48 h in series [5] and in series [14] was more than 100 µM each time. Further, the inhibition result in series [7] was “Active”. In [12], this compound yielded a logP at 4 h of 2 to 4.
As for `O=C1C(c2ccc(O)cc2)=C(c2ccc(F)cc2)C(=O)N1CCCNS(=O)(=O)c1ccc(C(F)(F)F)cc1`, the CC50 at 48 h is 34.3 µM in [5] and 19.7 µM in series [14]. For the same compound, the inhibition entry in [7] is “Active”. Moreover, the lipophilicity (logP) at 4 h in series [12] fell in the range of 2 to 4.
As to `CCc1ccc(S(=O)(=O)NCCN2C(=O)C(c3ccc(O)cc3)=C(c3ccc(F)cc3)C2=O)cc1`, the CC50 at 48 h in [5] was more than 100 µM; in series [14], 80.4 µM. In addition, the inhibition entry in series [7] is “Active”. The same compound returned a lipophilicity (logP) at 4 h in series [12] of 2 to 4.
Consider `O=C1[C@H](CC[C@H](O)c2ccc(F)cc2)[C@@H](c2ccc(O)cc2)N1c1ccc(F)cc1` [EZETIMIBE], for which the Activity in [1] stood at 76.3%; in the series with RAW264.7 [9], 46.5%; in the series on RAW264.7 [10], 30.9%; in [11], 36.4%. Also, the inhibition is 51.3% in [15], “Dose-dependent effect” in series [3] and 80.3% in [6]. For the same compound, the CC50 at 48 h stood at 44.2 µM in series [5] and 57.6 µM in [14].
With `O=C1C(c2ccc(F)cc2)=C(c2ccc(OCCS(=O)(=O)O)cc2)C(=O)N1CCC(O)(c1ccccc1)c1ccccc1`, the inhibition entry in [7] was “inactive”.
For the compound `CCN(CC)CCOc1ccc(C2=C(c3ccc(F)cc3)C(=O)N(CCC(O)(c3ccccc3)c3ccccc3)C2=O)cc1`, the inhibition in series [15] lay in the range of 69.6 to 72.6%. In addition, the CC50 at 48 h in series [5] came out at 32.7 µM; in series [14], 31.5 µM. The log partition coefficient (logP) at 4 h in [12] was more than 5.

One may read the inhibition as the relative decrease from the control value, in per cent. By logP is commonly meant the decadic logarithm of the partition coefficient of the neutral form, usually between octanol and water.
